Our source for the IC50 values is US12084437B2, “Halo-substituted piperidines as orexin receptor modulators” (AstraZeneca AB, priority 2016, dated 2024).

One assay has as its target T1, OX1 (Homo sapiens, UniProt O43613).
T1 construct: expressed in transfected cells; host or cells: CHO (CHO-OX1)
T1 sequence (O43613 1-425): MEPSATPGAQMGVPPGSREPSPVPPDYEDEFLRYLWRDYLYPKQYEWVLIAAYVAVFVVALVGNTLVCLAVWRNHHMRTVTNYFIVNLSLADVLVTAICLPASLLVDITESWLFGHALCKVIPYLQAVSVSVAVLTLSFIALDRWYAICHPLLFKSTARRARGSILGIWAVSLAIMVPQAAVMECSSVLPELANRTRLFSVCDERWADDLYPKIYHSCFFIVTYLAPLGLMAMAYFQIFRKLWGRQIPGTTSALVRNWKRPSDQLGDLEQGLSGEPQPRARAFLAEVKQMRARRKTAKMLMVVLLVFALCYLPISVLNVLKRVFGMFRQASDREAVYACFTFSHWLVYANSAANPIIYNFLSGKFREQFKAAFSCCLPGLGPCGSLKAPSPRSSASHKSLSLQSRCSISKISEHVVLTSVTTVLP
Kind of assay: Orexin receptor cell-based functional assay, [Ca2+]i by FLIPR, CHO-OX1 cells. The conditions noted are these: FLIPR calcium, antagonism of EC90 of [OX], read-out: OXI, IC50.

The target in a further assay is T2, OX2 (Homo sapiens, UniProt O43614).
T2 construct: expressed in transfected cells; host or cells: CHO (CHO-OX2)
T2 sequence (O43614 1-444): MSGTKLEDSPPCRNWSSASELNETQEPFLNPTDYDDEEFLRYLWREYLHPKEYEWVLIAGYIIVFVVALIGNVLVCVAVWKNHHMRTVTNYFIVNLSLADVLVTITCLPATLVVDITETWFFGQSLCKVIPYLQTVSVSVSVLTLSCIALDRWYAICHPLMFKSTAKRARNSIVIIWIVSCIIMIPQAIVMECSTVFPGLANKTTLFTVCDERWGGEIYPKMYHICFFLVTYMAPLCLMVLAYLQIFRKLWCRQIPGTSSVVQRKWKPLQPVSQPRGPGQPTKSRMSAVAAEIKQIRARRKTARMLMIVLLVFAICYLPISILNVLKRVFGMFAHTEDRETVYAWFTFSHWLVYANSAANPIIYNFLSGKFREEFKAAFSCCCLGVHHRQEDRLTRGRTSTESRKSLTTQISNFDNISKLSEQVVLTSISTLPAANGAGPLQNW
Briefly: Orexin receptor cell-based functional assay, [Ca2+]i by FLIPR, CHO-OX2 cells. The conditions noted are these: FLIPR calcium, antagonism of EC90 of [OX]. In short, it runs like this:
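CHO cells expressing human OX1 or OX2 (20,000/well, grown overnight) were loaded with Calcium6 dye plus 2.5 mM probenecid for 2 h at 37 °C, then preincubated 30 min with compound (0.1 nM–10 µM). FLIPR fluorescence (ex 488/em 540 nm) was tracked before and after an EC90 orexin challenge.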

Take `C[C@@H]1CC(F)(F)CN(C(=O)c2nn(C)cc2-c2ccc(Cl)cc2)[C@@H]1CNc1cnc(C(F)(F)F)cn1` [Compound 129, (4-(4-chlorophenyl)-1-methyl-1H-pyrazol-3-yl)((2S,3R)-5,5-difluoro-3-methyl-2-(((5-(trifluoromethyl)pyrazin-2-yl)amino)methyl)piperidin-1-yl)methanone]: the IC50 at OX1 amounted to 4 nM; at OX2, 3500 nM.
On the same counts, the results for `Cc1nc(C(=O)N2CC(F)(F)C[C@@H](C)[C@H]2CNc2ccc(C(F)(F)F)cn2)c(-c2ccc(F)cc2)s1` [Compound 185, ((2S,3R)-5,5-difluoro-3-methyl-2-(((5-(trifluoromethyl)pyridin-2-yl)amino)methyl)piperidin-1-yl)(5-(4-fluorophenyl)-2-methylthiazol-4-yl)methanone] are 2 nM and more than 5000 nM.

Broadly, the IC50 is the midpoint of a concentration-inhibition curve.
